Consider twelve molecules from patent US5710244A, “Derivatized calcitonins” (priority 1993, dated 1998).

Test [1] deals with endogenous hamster calcitonin receptor. The test can be described thus: CRE-linked luciferase (cyclic AMP) induction in BHK cells expressing endogenous hamster calcitonin receptor. It counts as cell-based. As to conditions: for % SCT EC50, Hamster CT receptor: EC50 as % of salmon calcitonin (SCT) EC50, CRE-luciferase, BHK cells, 4 h induction. The method, then:
A BHK cell line expressing the endogenous hamster calcitonin receptor was transfected with plasmid KZ10-20-48 to provide the CRE-inducible luciferase receptor described above. The transfected cells were cultured in selective growth medium containing both 500 μg/mL G418-neomycin and 250 nM methotrexate.
Cells expressing the calcitonin receptor were assayed in triplicate for the induction of the CRE-linked luciferase response to salmon calcitonin (SCT) and derivatized calcitonins at concentrations ranging from 10^-13 M to 10^-6 M. MICROLITE flat bottom tissue culture plates (Baxter Scientific Products, Chicago, Ill.) were set up such that each well contained 2×10^4 cells in 100 μl of selection media, and the cells were grown overnight. SCT and GF43 were prepared at 2X the final assay concentration to give 10^-13 to 10^-6 M in growth medium. Induction was initiated by removing old medium from the wells and adding 100 μl of fresh growth medium and 100 μl of either 2X solution in triplicate sample wells. Uninduced luciferase levels were determined in triplicate wells to which 100 μl of DMEM containing 10% fetal calf serum was added. The plates were incubated for four hours at 37° C., 5% CO2 to allow induction of luciferase. Following induction, the media were removed, and the wells were washed once with 200 μl/well PBS. After the wash, 20 μl of a 1:5 dilution (in sterile water) of the stock Cell Culture Lysis Reagent (Luciferase Assay System, Promega Corp., Madison, Wis.) was added to each well, and the plates were incubated for 15 minutes at room temperature. The plates were transferred to a Labsystems Luminoskan microtiter luminometer (Labsystems Inc., Morton Grove, Ill.) which added 40 μl of Luciferase Assay Substrate (Luciferase Assay System, Promega), mixed the reaction for three seconds and integrated the luciferase signal for two seconds per well. The fold induction of luciferase for each compound was calculated as follows:
Fold induction=Induced signal-Uninduced signal Uninduced signal

In test [2] the test system is serum calcium in mice. The test is described as follows: In vivo effect on serum calcium levels in mice. As to conditions: Swiss-Webster male mice, single subcutaneous injection, 100 ng/ml, 1 μg/ml, 10 μg/ml; 0, 1 and 4 hours; FIGS. 1 and 2. How it is done:
The biological activity of bipyridine-calcitonin in vivo was measured as the ability of BP4,4 -CT to lower serum calcium in mice as compared to the action of salmon calcitonin. Six-week old Swiss-Webster male mice (12 to 18 grams) were given single, subcutaneous injections of BP4,4 -CT, salmon calcitonin or vehicle. Blood samples for serum calcium measurements were collected from orbital sinus punctures at timed intervals of 0, 1 and 4 hours after injection. Serum calcium was analyzed using a Dacos Excel Analyzer (Coulter Electronics Company, Hialeah, Fla.). The compounds were given at the following doses with eight mice randomly assigned to each of the following groups: […]

Test [3] deals with T1, recombinant human calcitonin receptor (Homo sapiens, UniProt P30988).
T1 construct: expressed in transfected cells; host or cells: BHK/KZ10-20-48 (BHK cells carrying a CRE-luciferase reporter) transfected with pHOLLEX (ATCC 69067)
T1 sequence (P30988 25-474): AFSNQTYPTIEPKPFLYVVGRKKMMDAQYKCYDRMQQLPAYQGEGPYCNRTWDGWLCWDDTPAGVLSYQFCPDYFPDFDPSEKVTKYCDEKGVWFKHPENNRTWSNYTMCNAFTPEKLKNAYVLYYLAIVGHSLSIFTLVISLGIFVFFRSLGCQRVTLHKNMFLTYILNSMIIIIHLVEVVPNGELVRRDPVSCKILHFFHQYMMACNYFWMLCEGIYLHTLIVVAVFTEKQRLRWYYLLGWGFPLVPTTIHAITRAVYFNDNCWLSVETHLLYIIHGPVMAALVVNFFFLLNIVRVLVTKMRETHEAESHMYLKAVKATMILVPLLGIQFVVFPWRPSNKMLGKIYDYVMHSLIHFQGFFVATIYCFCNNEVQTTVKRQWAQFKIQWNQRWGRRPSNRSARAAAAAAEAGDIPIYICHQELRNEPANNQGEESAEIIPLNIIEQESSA
The test is described as follows: CRE-linked luciferase (cyclic AMP) induction in BHK/KZ10-20-48 cells expressing recombinant human calcitonin receptor. It counts as cell-based. As to conditions: for activity / potency compared with human calcitonin: text summary of the Table (hamster and human CT receptor); for % SCT EC50, Human CT receptor: EC50 as % of salmon calcitonin (SCT) EC50, CRE-luciferase, BHK/KZ10-20-48 cells, 4 h induction.
Experimental: BHK/KZ10-20-48 is a BHK cell line transfected with a plasmid containing a luciferase gene whose expression is dependent upon a cyclic AMP response element (CRE), which induces expression of downstream coding sequences in the presence of cyclic AMP. […] The vector without the calcitonin receptor was used to transfect the cell line BHK/KZ10-20-48 for a negative control. The transfectants were grown in a selective growth medium (Dulbecco's Modified Eagle Medium (DMEM) with 5% serum) containing both 500 μg/ml G418-neomycin and 250 nM methotrexate.
Cells expressing the calcitonin receptor were assayed in triplicate for the induction of the CRE-linked luciferase response to salmon calcitonin (SCT) and derivatized calcitonins at concentrations ranging from 10^-13 M to 10^-6 M. MICROLITE flat bottom tissue culture plates (Baxter Scientific Products, Chicago, Ill.) were set up such that each well contained 2×10^4 cells in 100 μl of selection media, and the cells were grown overnight. […] Induction was initiated by removing old medium from the wells and adding 100 μl of fresh growth medium and 100 μl of either 2X solution in triplicate sample wells. Uninduced luciferase levels were determined in triplicate wells to which 100 μl of DMEM containing 10% fetal calf serum was added. The plates were incubated for four hours at 37° C., 5% CO2 to allow induction of luciferase. Following induction, the media were removed, and the wells were washed once with 200 μl/well PBS. After the wash, 20 μl of a 1:5 dilution (in sterile water) of the stock Cell Culture Lysis Reagent (Luciferase Assay System, Promega Corp., Madison, Wis.) was added to each well, and the plates were incubated for 15 minutes at room temperature. The plates were transferred to a Labsystems Luminoskan microtiter luminometer (Labsystems Inc., Morton Grove, Ill.) which added 40 μl of Luciferase Assay Substrate (Luciferase Assay System, Promega), mixed the reaction for three seconds and integrated the luciferase signal for two seconds per well. The fold induction of luciferase for each compound was calculated as follows:

Test [4] addresses endogenous hamster calcitonin receptor (hamster).
Test [5] concerns the target T2, recombinant human calcitonin receptor (human, UniProt P30988).
T2 sequence: T1 sequence (P30988 25-474)
The test is described as follows: cell-based or functional assay.

Bridge positions count the residues as written; N and C are the ends. * marks the point of attachment. Pyrazinecarbonyl = O=C(c1cnccn1)*

In the case of “human calcitonin [HCT, reference compound]”, the “% SCT EC50, Hamster CT receptor (× 10^3)” value in test [1] (EC50 as % of SCT EC50, the factor × 10^3 is printed under the HCT value only) is recorded as 5.9 × 10^3%.
Regarding “ZP-1: salmon calcitonin N-terminally modified with 2,2'-bipyridine-4,4'-dicarboxylic acid”, the “% SCT EC50, Hamster CT receptor” value in test [1] amounted to 73%. For the same molecule, in test [2], the “decrease of serum calcium levels” value was “equally decreased serum calcium levels in a dose-dependent manner”.
Regarding `CC(C)C[C@H](NC(=O)[C@H](CCCCN)NC(=O)CNC(=O)[C@H](CC(C)C)NC(=O)[C@@H](NC(=O)[C@@H]1CSSC[C@H](N)C(=O)N[C@@H](CO)C(=O)N[C@@H](CC(N)=O)C(=O)N[C@@H](CC(C)C)C(=O)N[C@@H](CO)C(=O)N[C@@H]([C@@H](C)O)C(=O)N1)C(C)C)C(=O)N[C@@H](CO)C(=O)N[C@@H](CCC(N)=O)C(=O)N[C@@H](CCC(=O)O)C(=O)N[C@@H](CC(C)C)C(=O)N[C@@H](Cc1c[nH]cn1)C(=O)N[C@@H](CCCCN)C(=O)N[C@@H](CC(C)C)C(=O)N[C@@H](CCC(N)=O)C(=O)N[C@H](C(=O)N[C@@H](Cc1ccc(O)cc1)C(=O)N1CCC[C@H]1C(=O)N[C@@H](CCCNC(=N)N)C(=O)N[C@H](C(=O)N[C@@H](CC(N)=O)C(=O)N[C@H](C(=O)NCC(=O)N[C@@H](CO)C(=O)NCC(=O)N[C@H](C(=O)N1CCC[C@H]1C(N)=O)[C@@H](C)O)[C@@H](C)O)[C@@H](C)O)[C@@H](C)O` [salmon calcitonin, reference compound], the “decrease of serum calcium levels” value in test [2] is listed as “equally decreased serum calcium levels in a dose-dependent manner”.
Take “ZP-10: nipecotic acid modified salmon calcitonin”: the “% SCT EC50, Hamster CT receptor” value in test [1] was 152%.
Regarding “ZP-8: isonipecotic acid modified salmon calcitonin”, the “% SCT EC50, Hamster CT receptor” value in test [1] is on record as 106%. In test [3], the “activity / potency compared with human calcitonin” value is given as “greater activity than human calcitonin”.
With `CC(C)C[C@H](NC(=O)[C@H](CCCCN)NC(=O)CNC(=O)[C@H](CC(C)C)NC(=O)[C@@H](NC(=O)[C@@H]1CSSC[C@H](NC(=O)c2ccccn2)C(=O)N[C@@H](CO)C(=O)N[C@@H](CC(N)=O)C(=O)N[C@@H](CC(C)C)C(=O)N[C@@H](CO)C(=O)N[C@@H]([C@@H](C)O)C(=O)N1)C(C)C)C(=O)N[C@@H](CO)C(=O)N[C@@H](CCC(N)=O)C(=O)N[C@@H](CCC(=O)O)C(=O)N[C@@H](CC(C)C)C(=O)N[C@@H](Cc1c[nH]cn1)C(=O)N[C@@H](CCCCN)C(=O)N[C@@H](CC(C)C)C(=O)N[C@@H](CCC(N)=O)C(=O)N[C@H](C(=O)N[C@@H](Cc1ccc(O)cc1)C(=O)N1CCC[C@H]1C(=O)N[C@@H](CCCNC(=N)N)C(=O)N[C@H](C(=O)N[C@@H](CC(N)=O)C(=O)N[C@H](C(=O)NCC(=O)N[C@@H](CO)C(=O)NCC(=O)N[C@H](C(=O)N1CCC[C@H]1C(N)=O)[C@@H](C)O)[C@@H](C)O)[C@@H](C)O)[C@@H](C)O` [ZP-6], the “% SCT EC50, Human CT receptor” value in test [3] is 140%.
As for “ZP-2: 2,2'-bipyridine-5,5'-dicarboxylic acid modified salmon calcitonin”, in test [1], the “% SCT EC50, Hamster CT receptor” value was found to be 125%.
Regarding “ZP-9: DL-pipecolinic acid modified salmon calcitonin”, in test [1], the “% SCT EC50, Hamster CT receptor” value stood at 147%. Besides, in test [3], the “activity / potency compared with human calcitonin” value was “greater activity than human calcitonin”.
For “ZP-3: 4-4'-biphenyldicarboxylic acid modified salmon calcitonin”, in test [1], the “% SCT EC50, Hamster CT receptor” value came to 341%.
Regarding `CC(C)C[C@H](NC(=O)[C@H](CCCCN)NC(=O)CNC(=O)[C@H](CC(C)C)NC(=O)[C@@H](NC(=O)[C@@H]1CSSC[C@H](NC(=O)c2cccnc2)C(=O)N[C@@H](CO)C(=O)N[C@@H](CC(N)=O)C(=O)N[C@@H](CC(C)C)C(=O)N[C@@H](CO)C(=O)N[C@@H]([C@@H](C)O)C(=O)N1)C(C)C)C(=O)N[C@@H](CO)C(=O)N[C@@H](CCC(N)=O)C(=O)N[C@@H](CCC(=O)O)C(=O)N[C@@H](CC(C)C)C(=O)N[C@@H](Cc1c[nH]cn1)C(=O)N[C@@H](CCCCN)C(=O)N[C@@H](CC(C)C)C(=O)N[C@@H](CCC(N)=O)C(=O)N[C@H](C(=O)N[C@@H](Cc1ccc(O)cc1)C(=O)N1CCC[C@H]1C(=O)N[C@@H](CCCNC(=N)N)C(=O)N[C@H](C(=O)N[C@@H](CC(N)=O)C(=O)N[C@H](C(=O)NCC(=O)N[C@@H](CO)C(=O)NCC(=O)N[C@H](C(=O)N1CCC[C@H]1C(N)=O)[C@@H](C)O)[C@@H](C)O)[C@@H](C)O)[C@@H](C)O` [ZP-5], in test [3], the “% SCT EC50, Human CT receptor” value worked out at 112%.
Turning to “ZP-7: 2-Pyrazinoyl-modified salmon calcitonin”, the “% SCT EC50, Hamster CT receptor” value in test [1] came to 155%.

B1: 2-Pyrazinoyl-modified calcitonin (peptide)
peptide: Pyrazinecarbonyl-CSNLSTCVLGKLSQELHKLQTYPRTNTGSGTP-NH2
modifications: disulfide 1-7
SMILES: CC(C)C[C@H](NC(=O)[C@H](CCCCN)NC(=O)CNC(=O)[C@H](CC(C)C)NC(=O)[C@@H](NC(=O)[C@@H]1CSSC[C@H](NC(=O)c2cnccn2)C(=O)N[C@@H](CO)C(=O)N[C@@H](CC(N)=O)C(=O)N[C@@H](CC(C)C)C(=O)N[C@@H](CO)C(=O)N[C@@H]([C@@H](C)O)C(=O)N1)C(C)C)C(=O)N[C@@H](CO)C(=O)N[C@@H](CCC(N)=O)C(=O)N[C@@H](CCC(=O)O)C(=O)N[C@@H](CC(C)C)C(=O)N[C@@H](Cc1c[nH]cn1)C(=O)N[C@@H](CCCCN)C(=O)N[C@@H](CC(C)C)C(=O)N[C@@H](CCC(N)=O)C(=O)N[C@H](C(=O)N[C@@H](Cc1ccc(O)cc1)C(=O)N1CCC[C@H]1C(=O)N[C@@H](CCCNC(=N)N)C(=O)N[C@H](C(=O)N[C@@H](CC(N)=O)C(=O)N[C@H](C(=O)NCC(=O)N[C@@H](CO)C(=O)NCC(=O)N[C@H](C(=O)N1CCC[C@H]1C(N)=O)[C@@H](C)O)[C@@H](C)O)[C@@H](C)O)[C@@H](C)O
Take B1: the figures for the % SCT EC50 (CRE-linked luciferase induction) in test [4] and in test [5] were 155 % SCT EC50 and 158 % SCT EC50, respectively.
